Assay results: PMC3869244, “Cyclopamine analogs bearing exocyclic methylenes are highly potent and acid-stable inhibitors of hedgehog signaling” (Beilstein Journal of Organic Chemistry, 2013)
Entries after “also recorded” stand apart in the source; their conditions may differ. Where two headings read alike, the source gives them in different places.

Assays:
[1] = tested on: Gli1-dependent luciferase expression in Shh-LIGHTII cells; conditions: cited from earlier work
[2] = cited from earlier work
[3] = tested on: Gli1-dependent luciferase expression in Shh-LIGHTII cells; assay: Gli1-reporter gene assay (luciferase) in Shh-LIGHTII cells; assay type: cell-based, mouse; conditions: for IC50: Mus musculus, Shh Light II, 48 h, read-out: Potency in Gli-assay (IC50); for Activity in Gli1-dependent luciferase assay (in words): concentration range 0.01 μM to 10 μM
Procedure: Next, we examined all synthesized compounds for their ability to inhibit the Gli1-dependent luciferase expression in Shh-LIGHTII cells, a clonal mouse fibroblast cell line which stably incorporates a Gli-dependent firefly luciferase reporter and a constitutive Renilla luciferase reporter. The compounds were tested in a concentration range from 0.01 μM to 10 μM.
Data were obtained from three independent experiments and represent the mean ± standard deviation.
The interference of the exo-cyclopamine derivatives with the hedgehog signaling pathway was tested in an established reporter gene assay based on the inhibition of the target gene Gli1. Shh-LIGHTII cells (ATCC CRL-2795, LGC, Wesel, Germany) represent a clonal mouse fibroblast cell line (NIH 3T3), which stably incorporates a Gli-dependent firefly luciferase reporter and a constitutive Renilla luciferase reporter. They were grown in […] cell culture flasks at 37 °C in a humid atmosphere with 5% CO2. Cell growth medium […] (Dulbecco's Modified Eagle's Medium, high glucose, sodium pyruvate, w/o glutamine), ZeocinTM Selection Reagent and Geneticin® Selection Antibiotic (G418 sulfate) were obtained from Invitrogen. Additive L-glutamin and trypsin were obtained from PAA. VerseneTM chelating agent was obtained from Gibco, bovine fetal serum (FBS) from Sigma. The cell freeze medium contained 5% DMSO in complete growth medium. The cell number was counted using a Neubauer-Zählkammer (Hemocytometer).
(§1) […] (high glucose, sodium pyruvate, w/o glutamine) supplemented with 0.5% FBS, 4 mM L-glutamin and 50 mM HEPES buffer (4-(2-hydroxyethyl)-1-piperazine ethanesulfonic acid) (pH 7.4) was used as incubation medium. The measurement of reporter gene and constitutive Renilla luminescence was performed with the Dual Luciferase® reporter system according to the manufacturer’s instructions (Promega, Mannheim, Germany) using a GENios reader (TECAN, Crailsheim, Germany).
Luciferase reporter assay.
For performing the assay, Shh-LIGHTII cells were grown to reach 80% confluence, washed twice with Versene, detached with 2 mL trypsin for not longer than 2 min and resuspended in 8 mL of growth medium. After centrifugation for 3 min, the supernatant was removed and the cell pellet dissolved in approximately 10 mL of growth medium. Finally, 20,000 to 100,000 cells per well were cultured in a 24-well plate for 48 h. For exposure to the derivatives the growth medium was removed and the cells were exposed to the compound in 500 μL/well incubation medium for 48 h. Stock solutions were prepared in EtOH and introduced in different concentrations into the incubation medium to reach a final solvent concentration of 0.05%. Due to the assay principle, Shh-LIGHTII cells had to be co-exposed to 100 nM of SAG (Smoothened agonist) for determining the inhibitory activity of the compounds. A SAG stock solution was prepared in EtOH and introduced into the medium. The final EtOH concentration – introduced by SAG and the test compound – was 0.1%. As a positive control a 100 nM SAG solution in incubation medium (0.1% EtOH) was used, negative controls were treated with EtOH […]
Performing the luciferase measurement.
After 48 h of incubation cells were washed with 500 μL PBS (phosphate buffered saline, w Mg/Ca, Invitrogen) and afterwards incubated for 15 min with 100 μL 1 x passive lysis buffer on a shaker. The lysed cells together with lysis solution were transferred into 1.5 mL reaction tubes, centrifuged for 1 min at 4 °C and kept on ice until further use. At first, the blank of luminescence of a 96-well plate (flat bottom, white, Greiner bio-one) was recorded. Then, 100 μL luciferase assay reagent and 10 μL cell supernatant were mixed per well and the luminescence of firefly luciferase was recorded. Addition of 100 μL Stop&Glo® reagent permitted the recording

[4] = Stability towards acidic conditions; assay type: physicochemical; conditions: pH approximately 1 (MeOH, 1 M HCl), 1H NMR compared with pure compound
Procedure: Finally, we studied the stability of all newly synthesized compounds towards acidic conditions. Therefore, they were exposed to a pH of approximately 1 (MeOH, 1 M HCl) for 24 h. After evaporation of all volatiles, ^1H NMR spectra were acquired and compared to the initially obtained spectra of the pure compounds. […] This experiment emphasizes the importance of the C-21 methyl group for the stability of exo-cyclopamine derivatives. All synthesized compounds, the number of steps required, and the respective overall yield starting from 3 or 14, as well as their biological activity and stability under acidic conditions are summarized in Table 1.

Shh-LIGHTII cells = assay: Cytotoxicity observed in the reporter gene assay; assay type: cell-based, mouse; conditions: in the concentration range tested (0.01 μM to 10 μM)
Procedure: Given the negative test results of compounds 8 and 9 it becomes evident that the F-ring is necessary for bioactivity. The piperidine moiety provides a rather rigidly placed nitrogen atom. Nevertheless, a pyrrolidine as in compound 23 still provides the correct orientation of the nitrogen atom.
The interference of the exo-cyclopamine derivatives with the hedgehog signaling pathway was tested in an established reporter gene assay based on the inhibition of the target gene Gli1. […] The cell number was counted using a Neubauer-Zählkammer (Hemocytometer).
as §1, with “Germany). […]” for “Germany).”
After 48 h of incubation cells were washed with 500 μL PBS (phosphate buffered saline, w Mg/Ca, Invitrogen) and afterwards incubated for 15 min with 100 μL 1 x passive lysis buffer on a shaker. […] At first, the blank of luminescence of a 96-well plate (flat bottom, white, Greiner bio-one) was recorded. […]

[5] = read-out: Potency in Gli-assay, previously synthesized and biologically evaluated
[6] = Shh-LIGHTII cells, co-exposed to 100 nM SAG, tested 0.01 μM to 10 μM, mean ± standard deviation of three independent experiments

SMILES	IC50 [3, 6]	Stability towards acid (pH ~1, 24 h) [4]	Activity in Gli1-dependent luciferase assay (in words) [3]	also measured
CC1=C2C[C@H]3[C@@H](CC=C4C[C@@H](O)CC[C@@]43C)[C@@H]2CC[C@]12O[C@@H]1C[C@H](C)CN[C@H]1[C@H]2C [Compound 1, cyclopamine]	–	–	–	IC50 ([1]; read-out: Potency (IC50) as inhibitor of hedgehog signaling, introductory statement, no assay details printed): ~5 µM; IC50 [1, 5]: 5 µM; pH at which decomposition occurs ([2]; low metabolic stability (decomposition)): < 3; Stability towards acid (pH ~1, 24 h) ([2]; previously synthesized and evaluated compounds): decomp.
C=C1[C@@H]2C[C@H]3[C@@H](CC=C4C[C@@H](O)CC[C@@]43C)[C@@H]2CC[C@]12O[C@@H]1C[C@H](C)CN[C@H]1[C@H]2C [Compound 2, exo-cyclopamine]	–	–	–	IC50 [1, 5]: 0.5 µM
C=C1C2CC3C(CC=C4CC(O)CCC43C)C2CCC12OC1CC(C)CNC1C2C (stereo not drawn) [Compound 5, 25-epi-exo-cyclopamine]	3.29 ± 0.31 µM	remained unchanged; also recorded: stable	–	–
C=C1CNC2C(C1)OC1(CCC3C(CC4C3CC=C3CC(O)CCC34C)C1=C)C2C (stereo not drawn) [Compound 6, bis-exo-cyclopamine]	0.2 ± 0.01 µM	–	–	Potency relative to parent compound (cyclopamine) ([3]; surpasses potency of parent compound): 25 fold
C=C1[C@@H]2C[C@H]3[C@@H](CC=C4C[C@@H](O)CC[C@@]43C)[C@@H]2CC[C@]12OC[C@@H](NCC)[C@H]2C [Compound 8]	> 10 µM	remained unchanged; also recorded: stable	no activity	Cytotoxicity (Shh-LIGHTII cells): induced cytotoxicity
C=C1[C@@H]2C[C@H]3[C@@H](CC=C4C[C@@H](O)CC[C@@]43C)[C@@H]2CC[C@]12OC[C@@H](N)[C@H]2C [Compound 9]	> 10 µM	remained unchanged; also recorded: stable	no activity	Cytotoxicity (Shh-LIGHTII cells): induced cytotoxicity
C=C1CN[C@H]2C[C@@]3(CC[C@H]4[C@@H]5CC=C6C[C@@H](O)CC[C@]6(C)[C@H]5C[C@H]4C3=C)O[C@@H]2C1 [Compound 19, 20-demethyl-bis-exo-cyclopamine]	–	showed decomposition; also recorded: decomp	no activity; also recorded: completely inactive	IC50 [3]: > 10 µM
C=C1C2CC3C(CC=C4CC(O)CCC43C)C2CCC12CC1NCCC1O2 (stereo not drawn) [Compound 23, F-nor-20,25-bis-demethyl-exo-cyclopamine]	6.4 ± 0.9 µM	showed decomposition; also recorded: decomp	–	–
